The structures appear in SMILES notation. Converted amounts (≈) assume the structure as drawn. “And” between values parts separate entries of the source, which are not always exact repeats. Equal entries are not always repeated. Where two headings read alike, the source gives them in different places.

For one data set, the system named is Bovine eyes. The note with it: test compounds 1 mM in saline, controls as labelled, exposure 30 seconds. As to the method:
Bovine eyes were collected from a local slaughter house (ABP, Guildford, Surrey, UK) and were transported in cold saline for testing at the laboratory. Each eye was first examined for signs of damage before use. The test was conducted according to Abdelkader et al., (2012), Int J Pharm 432: 1-10. The exposure time of the test substances was 30 seconds. The selected bactericidal compounds were tested at a concentration of 1 mM in saline. Overall, the concentration of ethanol carry-over from the stock of the organic acids was therefore 1 %. […] The test area of the cornea was then washed with 10 ml saline.
Corneal damage to the test area was assessed by fluorescein staining and examined under a cobalt blue filter. […] Each of the seven candidates were tested in triplicate, each test was performed on a separate day from a different batch of eye balls. Corneal histology was done as Abdelkader et al., (2012), Int J Pharm 432: 1-10 by evaluating the damage to the epithelial layer and stroma of the cornea after Haematoxylin and Eosin staining.

A further data set concerns Chorioallantoic Membrane. Particulars: organic acids 1 mg/ml, sodium hydroxide 0.1M; for Total Score: number. The method, then:
The HET-CAM was performed according to Alany et al., (2006), J Control Release 111: 145-152. Fertilised white leghorn eggs were purchased from Henry Stewart & Co. Ltd (Fakenham, Norfolk, UK) and delivered to Kingston University. All eggs were checked for damage and incubated at 37°C with 60-70 % relative humidity. At day 4 the eggs were removed from their shells and placed in incubation chambers. At day 9, the CAMs were tested. This was done by applying 200 µl of the testing material and recording results at 30, 120, and 300 seconds. At each of these time-points the effect of the substance on the CAM was evaluated by assessing them against the scoring system (Vanerp YHM, et al., (1990), Toxicology in Vitro 4: 267-269).

The subject of data set [1] is Neisseria gonorrhoeae strain NCCP11945. Description: Measurement of bactericidal action (log reduction). Type of data set: cell-based. Particulars: for log reduction at 1000 µM: Neisseria gonorrhoeae. The method, then:
(§1) The well characterised N. gonorrhoeae strain NCCP11945 (Chung GT et al. (2008) Complete genome sequence of Neisseria gonorrhoeae NCCP11945. Journal of Bacteriology 190: 6035-6036) was used in the screening stage of this experiment. Eight isolates that were obtained from Public Health England from various European locations were used in the log reduction assays. All isolates were first cultured for 24 hours prior to testing by plating on GC solid medium (Oxoid Limited, Hampshire, UK) with Kellogg supplements and incubating at 37 °C, 5% CO2 (Kellogg DS, Jr., et al., (1963), J Bacteriol 85: 1274-1279).
(§2) A full list of all the organic acids tested in this study is in Table 1. The tested compounds include saturated and unsaturated fatty acids, monoglycerides, dicarboxylic acids, and fatty acid sodium salts. All compounds investigated were resuspended at a concentration of 100 mM in ethanol unless stated. All chemicals were obtained from Sigma-Aldrich (Poole, Dorset, UK).
(§3) Log reductions were done using the same method as in Bergsson et al., (1999), Antimicrob Agents Chemother 43: 2790-2792. Briefly, cells were suspended in GC broth (18 g/L GC Base (Oxiod, Limited) with added defined supplements) to an optical density of 0.3 at 520 nm which is approximately equivalent to 107 - 108 cells per millilitre (Macfarlane DE et al. (1980) Improved media for the culture of Neisseria gonorrhoeae. J Med Microbiol 13: 597-607). Five hundred microliters of the suspension was then added to 5 µl of the 100 mM stocks to give a final concentration of 1 mM. A negative control was also done to calculate the reduction in bacterial titre by adding 500 µl to 5 µl ethanol. The tubes were then mixed at room temperature for two minutes and immediately diluted in a 10 fold dilution series down to 10-4. The dilutions were plated by spreading 10 µl on a quarter of a plate and 100 µl of the neat solution was also plated. Plates were incubated at 37 °C for 48 hours. All samples were plated in duplicate. A reduction in viable cell count by more than 4 log10 was deemed to be bactericidal and was selected for further investigation. Bactericidal compounds were then tested at concentrations of 0.75, 0.5, and 0.25 mM (0.125 mM was also used in some potent compounds) to find the minimum bactericidal concentration. Additional testing at lower concentrations was also done on the eight clinical isolates of European origin.

Data set [2] shares this test system. Description: Log reduction in artificial tear fluid. Type of data set: cell-based. The note with it: two minute exposure. The method, then:
Artificial tear fluid was made as in Mirejovsky et al., Optometry and Vision Science, (1991), 68: 858-864. […] Neisseria gonorrhoeae strain NCCP11945 was used in these experiments. As the previous log reductions, […] were suspended in GC broth. The cell suspension was centrifuged to remove the culture medium and the bacteria resuspended in the tear fluid. This was then added to the concentrated organic acid candidates. The cells were then counted again after two minute exposure to estimate any reduction due to the exposure to the fatty acid.
In a first experiment, the artificial tear fluid formulation includes calcium chloride to mimic the calcium in natural tears. As shown by the results in Figure 8, the anti-gonococcal properties of myristoleic acid (C14:1cΔ9), palmitoleic acid (C16:1cΔ9), linolenic acid (C18:3cΔ9,12,15), and monocaprin(C10) are retained in the artificial tear fluid formulation containing calcium chloride.
In a second experiment, calcium chloride was omitted from the artificial tear fluid formulation. The results in Figure 9 indicate that the anti-gonococcal properties of lauric acid (C12:0), tridecanoic acid (C13:0), and sodium dodecanoate were retained in the artificial tear fluid formulation without.

Data set [3] concerns panel of nine N. gonorrhoeae isolates (strain NCCP11945 and eight isolates from Public Health England). Kind of data set: Minimum bactericidal concentration by log reduction, panel of isolates. Particulars: Neisseria gonorrhoeae, 2 min, read-out: Minimum bactericidal concentration. Format: cell-based. The method, then:
as §1, §3
As shown by the results in Table 3 which presents data on the log reductions of bacterial cell counts, against a panel of nine N. gonorrhoeae isolates (strain NCCP11945 and eight isolates from Public Health England), myristoleic acid (C14:1cΔ9), palmitoleic acid (C16:1cΔ9), linolenic acid (C18:3cΔ9,12,15), and monocaprin (C10) have a minimal bactericidal concentration, defined as the lowest concentration tested to give an average 4 log10 reduction in bacterial count after a two minute exposure, of 0.5 mM. Against a panel of nine N. gonorrhoeae isolates, lauric acid (C12:0), tridecanoic acid (C13:0), and sodium dodecanoate have a minimal bactericidal concentration of 0.75 mM.

A short description of the next data set: in vitro. Type of data set: cell-based, bovine. Particulars: red blood cells. As to the method:
(§4) Whole bovine blood was obtained from a local slaughter house (ABP, Guildford, Surrey, UK), adding 90 ml blood to 10 ml of 110 mM tri-sodium citrate anticoagulant. RBCs were isolated the same day. The RBCs were washed by three repeats of centrifugation (1,500 x g for 10 minutes) and resuspension in PBSG. Testing was done following European Union Reference Laboratory for alternatives to animal testing (EURL-ECVAM) guidelines (Lewis RW (2010) DB-ALM Protocol No. 99: Red blood cell (RBC) Test System. EURL ECVAM). The organic acids were made up in DMSO and diluted to a DMSO concentration maximum of 10 % (v/v). Samples were shaken at room temperature for 1 hour and then centrifuged at 10,000 rpm for 2 minutes. An aliquot of 750 µl of the supernatant was taken and absorbance at […] tested.

Another data set has as its system RBCs. Kind of data set: in vitro. Format: cell-based, bovine. The method, then: as §4
Data set [4] has as its system Neisseria gonorrhoeae strain NCCP11945. Description: Growth inhibition screen of organic acids. The note with it: strain NCCP11945, in vitro, 1 mM. Format: cell-based. The method, then:
as §1, §2
Other organic acids were also active at this concentration, as noted in Table 1.

The mark [5] stands for this setting: NCCP11945, 2 min, read-out: Log reduction of Neisseria gonorrhoeae, strain NCCP11945, 1 mM, 2 minutes.
Setting [6] is: strain NCCP11945, 1 mM, 2 minutes.
Where [7] appears, read: artificial tear fluid without calcium chloride, Figure 9.
The mark [8] stands for this setting: bovine RBCs, shaken 1 hour at room temperature, read-out: H50.
Setting [9] is: bovine RBCs, shaken 1 hour at room temperature, read-out: H50 (mg/L).
The mark [10] stands for this setting: at their minimum bactericidal concentration.
Setting [11] is: 2 min, strain NCCP11945, 1 mM, 2 minutes, read-out: Log reduction of Neisseria gonorrhoeae.
Where [12] appears, read: lowest concentration tested giving an average 4 log10 reduction after two minute exposure, nine isolates.

As to `CC(C)=O` [Acetone, reference compound], the BCOP classification entry with Bovine eyes is “Strong irritant”. For the same molecule, in the data set on Chorioallantoic Membrane, the “Total Score” value is 14 and the “Total Score (irritation grade in words)” value is recorded as “Severe”.

Turning to `CCCCCCCCCCCC(=O)O` [Lauric acid 12:0, dodecanoic acid], in data set [1] (setting [5]), the log reduction at 1000 µM was above 6. Besides, the “Log reduction of Neisseria gonorrhoeae” value in data set [1] (setting [6]) is given as “able to cause a log reduction”. Further, in data set [2] (setting [7]), the “anti-gonococcal properties in artificial tear fluid” value (“anti-gonococcal properties” below) is reported as “retained”. Besides, in data set [3], the MBC worked out at 750 µM (≈ 150 µg/mL). For the same molecule, the BCOP classification result is “Non-irritant” in the data set on Bovine eyes (listed as Lauric acid) and “will not cause irritation” with Bovine eyes (listed as lauric acid). Also, in the data set with Chorioallantoic Membrane, the “Total Score” value is 0. The “Total Score (irritation grade in words)” value in the data set on Chorioallantoic Membrane (listed as Lauric acid) is “None”. Moreover, the HC50 at 1 h is 1 to 2 mM in “in vitro” (setting [8]) and 200 to 400 mg/L in the data set “in vitro” (setting [9]). The “RBC lysis assay prediction of irritation” value in the data set on RBCs (setting [10]) is “not irritating”. In addition, the “Inhibits growth of Neisseria gonorrhoeae” value is on record as “Yes” in data set [4] and “able to inhibit growth” in data set [4] (listed as lauric acid).

Take `CCCC/C=C\CCCCCCCC(=O)O` [Myristoleic acid 14:1 cΔ9, (Z)-tetradec-9-enoic acid]: in data set [1] (setting [11]), the log reduction at 1000 µM was above 6. Further, in data set [1] (setting [6]), the “Log reduction of Neisseria gonorrhoeae” value is recorded as “able to cause a log reduction”. In data set [2] (artificial tear fluid containing calcium chloride, Figure 8), the “anti-gonococcal properties” value is on record as “retained”. Besides, the MBC in data set [3] (setting [12]) turned out to be 500 µM (≈ 113 µg/mL). Further, the HC50 at 1 h is 2.6 to 3.5 mM in “in vitro” (setting [8]) and 600 to 800 mg/L in “in vitro” (setting [9]). Moreover, the “RBC lysis assay prediction of irritation” value in the data set with RBCs (setting [10]) is recorded as “not irritating”. Also, the “Inhibits growth of Neisseria gonorrhoeae” value in data set [4] is recorded as “Yes”; in data set [4] (listed as myristoleic acid) it was “able to inhibit growth”.

On to `CCCCCCCCCCCC(=O)[O-].[Na+]` [Sodium dodecanoate], for which the log reduction at 1000 µM in data set [1] (setting [5]) is above 6. Further, in data set [1] (setting [6]), the “Log reduction of Neisseria gonorrhoeae” value was “able to cause a log reduction”. Besides, the “anti-gonococcal properties” value in data set [2] (setting [7]) is on record as “retained”. In addition, in data set [3], the MBC came out at 750 µM. Besides, the HC50 at 1 h in “in vitro” (bovine) was 200 µg/mL to 400 µg/mL and 900 µM to 1.8 mM. Moreover, the “RBC lysis assay prediction of irritation” value with RBCs is reported as “not irritating”. For the same molecule, the results for the “Inhibits growth of Neisseria gonorrhoeae” value in data set [4] and in data set [4] (listed as sodium dodecanoate) were “Yes” and “able to inhibit growth”, respectively.

With `CCCCCCCCCCCCC(=O)O` [Tridecanoic acid 13:0, Tridecanoic acid], in data set [1] (setting [11]), the log reduction at 1000 µM is above 6. Besides, the “Log reduction of Neisseria gonorrhoeae” value in data set [1] (setting [6]) is given as “able to cause a log reduction”. Moreover, the “anti-gonococcal properties” value in data set [2] (setting [7]) is listed as “retained”. Besides, in data set [3] (setting [12]), the MBC is 750 µM (≈ 161 µg/mL). Further, the HC50 at 1 h was above 4.67 mM in “in vitro” (setting [8]) and above 1000 mg/L in “in vitro” (setting [9]). Also, in the data set on RBCs, the “RBC lysis assay prediction of irritation” value was “not irritating”. Further, the “Inhibits growth of Neisseria gonorrhoeae” value in data set [4] is “Yes”; in data set [4] (listed as tridecanoic acid) it was “able to inhibit growth”.
